± gives the expanded uncertainty stated by the source.
How the values were obtained:
[1] = 101 kPa, Liquid; for viscosity: Capillary tube (Ostwald / Ubbelohde) method; for mass density: Vibrating tube method
[2] = cn = amount concentration of the nth substance listed, in mol/dm3; conditions: 101 kPa, Liquid; for viscosity: Capillary tube (Ostwald / Ubbelohde) method; for mass density: Vibrating tube method

CO [methanol]
viscosity ([1]; 298.15 K): 0.545 ± 0.011 mPa·s
mass density ([1]; 298.15 K): 786.61 ± 1 kg/m3
viscosity ([1]; 308.15 K): 0.476 ± 0.01 mPa·s
mass density ([1]; 308.15 K): 777.15 ± 1 kg/m3
viscosity ([1]; 318.15 K): 0.4183 ± 0.0089 mPa·s
mass density ([1]; 318.15 K): 767.74 ± 1 kg/m3

CCCCn1cc[n+](C)c1C.F[B-](F)(F)F [1-butyl-2,3-dimethylimidazolium tetrafluoroborate] + CO
viscosity ([2]; 298.15 K, c1 = 0.005): 0.552 ± 0.012 mPa·s
viscosity ([2]; 298.15 K, c1 = 0.01): 0.5649 ± 0.012 mPa·s
viscosity ([2]; 298.15 K, c1 = 0.015): 0.5747 ± 0.012 mPa·s
viscosity ([2]; 298.15 K, c1 = 0.02): 0.5845 ± 0.012 mPa·s
mass density ([2]; 298.15 K, c1 = 0.005): 787.59 ± 1 kg/m3
mass density ([2]; 298.15 K, c1 = 0.01): 788.04 ± 1 kg/m3
mass density ([2]; 298.15 K, c1 = 0.015): 788.45 ± 1 kg/m3
mass density ([2]; 298.15 K, c1 = 0.02): 788.96 ± 1 kg/m3
viscosity ([2]; 308.15 K, c1 = 0.005): 0.487 ± 0.01 mPa·s
viscosity ([2]; 308.15 K, c1 = 0.01): 0.4978 ± 0.01 mPa·s
viscosity ([2]; 308.15 K, c1 = 0.015): 0.5043 ± 0.011 mPa·s
viscosity ([2]; 308.15 K, c1 = 0.02): 0.513 ± 0.011 mPa·s
mass density ([2]; 308.15 K, c1 = 0.005): 778.01 ± 1 kg/m3
mass density ([2]; 308.15 K, c1 = 0.01): 778.52 ± 1 kg/m3
mass density ([2]; 308.15 K, c1 = 0.015): 778.98 ± 1 kg/m3
mass density ([2]; 308.15 K, c1 = 0.02): 779.46 ± 1 kg/m3
viscosity ([2]; 318.15 K, c1 = 0.005): 0.4271 ± 0.0091 mPa·s
viscosity ([2]; 318.15 K, c1 = 0.01): 0.436 ± 0.0093 mPa·s
viscosity ([2]; 318.15 K, c1 = 0.015): 0.4446 ± 0.0095 mPa·s
viscosity ([2]; 318.15 K, c1 = 0.02): 0.4532 ± 0.0096 mPa·s
mass density ([2]; 318.15 K, c1 = 0.005): 768.49 ± 1 kg/m3
mass density ([2]; 318.15 K, c1 = 0.01): 769.43 ± 1 kg/m3
mass density ([2]; 318.15 K, c1 = 0.015): 769.92 ± 1 kg/m3
mass density ([2]; 318.15 K, c1 = 0.02): 770.36 ± 1 kg/m3

CO [methanol] + CCCCn1cc[n+](C)c1C.F[B-](F)(F)F
viscosity ([2]; 298.15 K, c2 = 0): 0.545 ± 0.011 mPa·s
mass density ([2]; 298.15 K, c2 = 0): 786.61 ± 1 kg/m3
viscosity ([2]; 308.15 K, c2 = 0): 0.476 ± 0.01 mPa·s
mass density ([2]; 308.15 K, c2 = 0): 777.15 ± 1 kg/m3
viscosity ([2]; 318.15 K, c2 = 0): 0.4183 ± 0.0089 mPa·s
mass density ([2]; 318.15 K, c2 = 0): 767.74 ± 1 kg/m3

— the NIST ThermoML archive (doi:10.1016/j.jct.2013.09.018)
